Experimental data reported in a compilation of properties of binary mixtures (doi:10.1007/s10953-011-9788-x).

Test: xn = mol fraction of the nth substance listed
Conditions: 101 kPa

CCCC[n+]1ccn(C)c1.N[C@@H](CCC(=O)O)C(=O)[O-] + CO
viscosity (298.15 K, x2 = 0.1087): 59.8 mPa·s | viscosity (298.15 K, x2 = 0.4003): 24.6 mPa·s | viscosity (298.15 K, x2 = 0.4998): 16.4 mPa·s | viscosity (298.15 K, x2 = 0.6002): 9.69 mPa·s | viscosity (298.15 K, x2 = 0.8001): 2.31 mPa·s | viscosity (303.15 K, x2 = 0.1087): 49.9 mPa·s | viscosity (303.15 K, x2 = 0.2002): 39.6 mPa·s | viscosity (303.15 K, x2 = 0.2995): 30.3 mPa·s | viscosity (303.15 K, x2 = 0.4003): 22.2 mPa·s | viscosity (303.15 K, x2 = 0.4998): 15.3 mPa·s | viscosity (303.15 K, x2 = 0.7): 5.48 mPa·s | viscosity (303.15 K, x2 = 0.8001): 2.82 mPa·s | viscosity (303.15 K, x2 = 0.9): 1.48 mPa·s | viscosity (308.15 K, x2 = 0.1087): 39.1 mPa·s | viscosity (308.15 K, x2 = 0.2002): 31.2 mPa·s | viscosity (308.15 K, x2 = 0.2995): 24.1 mPa·s | viscosity (308.15 K, x2 = 0.4003): 18.1 mPa·s | viscosity (308.15 K, x2 = 0.4998): 12.9 mPa·s | viscosity (308.15 K, x2 = 0.7): 5.2 mPa·s | viscosity (308.15 K, x2 = 0.9): 1.33 mPa·s | viscosity (313.15 K, x2 = 0.1087): 31.6 mPa·s | viscosity (313.15 K, x2 = 0.2995): 20 mPa·s | viscosity (313.15 K, x2 = 0.4003): 15 mPa·s | viscosity (313.15 K, x2 = 0.4998): 10.8 mPa·s | viscosity (313.15 K, x2 = 0.6002): 7.3 mPa·s | viscosity (313.15 K, x2 = 0.8001): 2.54 mPa·s | viscosity (313.15 K, x2 = 0.9): 1.24 mPa·s
